From PubChem BioAssay (NCI)
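Five concentrations, 48 hours, 96-well plates. The concentration for 50% growth inhibition is given as GI50. At the TGI there is no net growth.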

Legend:
Experiment in all cases: DTP human tumour cell line panel, 48 h
A498 renal = tested on: A498 renal
A549 NSCLC = tested on: A549 NSCLC
ACHN renal = tested on: ACHN renal
CAKI-1 renal = tested on: CAKI-1 renal
CCRF-CEM leukemia = tested on: CCRF-CEM leukemia
COLO 205 colon = tested on: COLO 205 colon
DU-145 prostate = tested on: DU-145 prostate
EKVX NSCLC = tested on: EKVX NSCLC
HCC-2998 colon = tested on: HCC-2998 colon
HCT-15 colon = tested on: HCT-15 colon
HL-60(TB) leukemia = tested on: HL-60(TB) leukemia
HOP-62 NSCLC = tested on: HOP-62 NSCLC
HOP-92 NSCLC = tested on: HOP-92 NSCLC
HS 578T breast = tested on: HS 578T breast
HT29 colon = tested on: HT29 colon
IGROV1 ovarian = tested on: IGROV1 ovarian
K-562 leukemia = tested on: K-562 leukemia
KM12 colon = tested on: KM12 colon
LOX IMVI melanoma = tested on: LOX IMVI melanoma
MALME-3M melanoma = tested on: MALME-3M melanoma
MCF7 breast = tested on: MCF7 breast
MDA-MB-231 breast = tested on: MDA-MB-231 breast
MDA-MB-435 = tested on: MDA-MB-435
MOLT-4 leukemia = tested on: MOLT-4 leukemia
NCI-H226 lung = tested on: NCI-H226 lung
NCI-H23 lung = tested on: NCI-H23 lung
NCI-H460 lung = tested on: NCI-H460 lung
NCI-H522 lung = tested on: NCI-H522 lung
NCI/ADR-RES ovarian = tested on: NCI/ADR-RES ovarian
OVCAR-3 ovarian = tested on: OVCAR-3 ovarian
OVCAR-4 ovarian = tested on: OVCAR-4 ovarian
OVCAR-5 ovarian = tested on: OVCAR-5 ovarian
OVCAR-8 ovarian = tested on: OVCAR-8 ovarian
PC-3 prostate = tested on: PC-3 prostate
RPMI-8226 leukemia = tested on: RPMI-8226 leukemia
RXF 393 renal = tested on: RXF 393 renal
SF-268 CNS = tested on: SF-268 CNS
SF-295 CNS = tested on: SF-295 CNS
SF-539 CNS = tested on: SF-539 CNS
SK-MEL-2 melanoma = tested on: SK-MEL-2 melanoma
SK-MEL-28 melanoma = tested on: SK-MEL-28 melanoma
SK-MEL-5 melanoma = tested on: SK-MEL-5 melanoma
SK-OV-3 ovarian = tested on: SK-OV-3 ovarian
SN12C renal = tested on: SN12C renal
SNB-19 CNS = tested on: SNB-19 CNS
SNB-75 CNS = tested on: SNB-75 CNS
SR leukemia = tested on: SR leukemia
SW-620 colon = tested on: SW-620 colon
T-47D breast = tested on: T-47D breast
TK-10 renal = tested on: TK-10 renal
U251 CNS = tested on: U251 CNS
UACC-257 melanoma = tested on: UACC-257 melanoma
UACC-62 melanoma = tested on: UACC-62 melanoma
UO-31 renal = tested on: UO-31 renal

COc1cc(/C(=C2/O[C@@H]([C@H]3COC(C)(C)O3)[C@H]3OC(C)(C)O[C@@H]23)c2ccc3c(c2)OCO3)cc(OC)c1OC
GI50 (A498 renal): > 25 µM
TGI (A498 renal): > 25 µM
GI50 (A549 NSCLC): > 25 µM
TGI (A549 NSCLC): > 25 µM
GI50 (ACHN renal): 4.68 µM
TGI (ACHN renal): > 25 µM
GI50 (CAKI-1 renal): > 25 µM
TGI (CAKI-1 renal): > 25 µM
GI50 (CCRF-CEM leukemia): > 25 µM
TGI (CCRF-CEM leukemia): > 25 µM
GI50 (COLO 205 colon): > 25 µM
TGI (COLO 205 colon): > 25 µM
GI50 (DU-145 prostate): > 25 µM
TGI (DU-145 prostate): > 25 µM
GI50 (EKVX NSCLC): > 25 µM
TGI (EKVX NSCLC): > 25 µM
GI50 (HCC-2998 colon): > 25 µM
TGI (HCC-2998 colon): > 25 µM
GI50 (HCT-15 colon): > 25 µM
TGI (HCT-15 colon): > 25 µM
GI50 (HL-60(TB) leukemia): > 25 µM
TGI (HL-60(TB) leukemia): > 25 µM
GI50 (HOP-62 NSCLC): > 25 µM
TGI (HOP-62 NSCLC): > 25 µM
GI50 (HOP-92 NSCLC): > 25 µM
TGI (HOP-92 NSCLC): > 25 µM
GI50 (HS 578T breast): > 25 µM
TGI (HS 578T breast): > 25 µM
GI50 (HT29 colon): > 25 µM
TGI (HT29 colon): > 25 µM
GI50 (IGROV1 ovarian): > 25 µM
TGI (IGROV1 ovarian): > 25 µM
GI50 (K-562 leukemia): > 25 µM
TGI (K-562 leukemia): > 25 µM
GI50 (KM12 colon): > 25 µM
TGI (KM12 colon): > 25 µM
GI50 (LOX IMVI melanoma): > 25 µM
TGI (LOX IMVI melanoma): > 25 µM
GI50 (MALME-3M melanoma): > 25 µM
TGI (MALME-3M melanoma): > 25 µM
GI50 (MCF7 breast): > 25 µM
TGI (MCF7 breast): > 25 µM
GI50 (MDA-MB-231 breast): > 25 µM
TGI (MDA-MB-231 breast): > 25 µM
GI50 (MDA-MB-435): > 25 µM
TGI (MDA-MB-435): > 25 µM
GI50 (MOLT-4 leukemia): > 25 µM
TGI (MOLT-4 leukemia): > 25 µM
GI50 (NCI-H226 lung): > 25 µM
TGI (NCI-H226 lung): > 25 µM
GI50 (NCI-H23 lung): > 25 µM
TGI (NCI-H23 lung): > 25 µM
GI50 (NCI-H460 lung): > 25 µM
TGI (NCI-H460 lung): > 25 µM
GI50 (NCI-H522 lung): > 25 µM
TGI (NCI-H522 lung): > 25 µM
GI50 (NCI/ADR-RES ovarian): > 25 µM
TGI (NCI/ADR-RES ovarian): > 25 µM
GI50 (OVCAR-3 ovarian): > 25 µM
TGI (OVCAR-3 ovarian): > 25 µM
GI50 (OVCAR-4 ovarian): 8.81 µM
TGI (OVCAR-4 ovarian): > 25 µM
GI50 (OVCAR-5 ovarian): 4.85 µM
TGI (OVCAR-5 ovarian): > 25 µM
GI50 (OVCAR-8 ovarian): > 25 µM
TGI (OVCAR-8 ovarian): > 25 µM
GI50 (PC-3 prostate): > 25 µM
TGI (PC-3 prostate): > 25 µM
GI50 (RPMI-8226 leukemia): > 25 µM
TGI (RPMI-8226 leukemia): > 25 µM
GI50 (RXF 393 renal): 6.05 µM
TGI (RXF 393 renal): > 25 µM
GI50 (SF-268 CNS): > 25 µM
TGI (SF-268 CNS): > 25 µM
GI50 (SF-295 CNS): > 25 µM
TGI (SF-295 CNS): > 25 µM
GI50 (SF-539 CNS): 8.05 µM
TGI (SF-539 CNS): > 25 µM
GI50 (SK-MEL-2 melanoma): > 25 µM
TGI (SK-MEL-2 melanoma): > 25 µM
GI50 (SK-MEL-28 melanoma): 16.1 µM
TGI (SK-MEL-28 melanoma): > 25 µM
GI50 (SK-MEL-5 melanoma): 13 µM
TGI (SK-MEL-5 melanoma): > 25 µM
GI50 (SK-OV-3 ovarian): > 25 µM
TGI (SK-OV-3 ovarian): > 25 µM
GI50 (SN12C renal): 18.8 µM
TGI (SN12C renal): > 25 µM
GI50 (SNB-19 CNS): > 25 µM
TGI (SNB-19 CNS): > 25 µM
GI50 (SNB-75 CNS): 7.13 µM
TGI (SNB-75 CNS): > 25 µM
GI50 (SR leukemia): > 25 µM
TGI (SR leukemia): > 25 µM
GI50 (SW-620 colon): > 25 µM
TGI (SW-620 colon): > 25 µM
GI50 (T-47D breast): 14.5 µM
TGI (T-47D breast): > 25 µM
GI50 (TK-10 renal): > 25 µM
TGI (TK-10 renal): > 25 µM
GI50 (U251 CNS): > 25 µM
TGI (U251 CNS): > 25 µM
GI50 (UACC-257 melanoma): > 25 µM
TGI (UACC-257 melanoma): > 25 µM
GI50 (UACC-62 melanoma): > 25 µM
TGI (UACC-62 melanoma): > 25 µM
GI50 (UO-31 renal): > 25 µM
TGI (UO-31 renal): > 25 µM

N=C(N)c1ccc(-c2ccc(-c3cncc4ccccc34)s2)s1
GI50 (DU-145 prostate): 1.55 µM
TGI (DU-145 prostate): 3 µM
GI50 (HS 578T breast): 2.22 µM
TGI (HS 578T breast): 4.75 µM
GI50 (OVCAR-8 ovarian): 1.83 µM
TGI (OVCAR-8 ovarian): 4.4 µM
GI50 (UACC-257 melanoma): 2.47 µM
TGI (UACC-257 melanoma): 5.23 µM
